Blank lines part the entries; values can stand above or below the molecule they belong to.
Legend:
Hela cells = assay: Toxicity of BDMC on Hela cells; assay type: cell-based, human; details: within experimental concentration (maximal 8 μM)
UGT1A1 [1] = biological target: T1, UGT1A1 (Homo sapiens, UniProt P22309); assay: Glucuronidation kinetics by HeLa1A1 cell lysate; details: human, HeLa1A1 cell lysate (HeLa cells expressing UGT1A1), pH 7.4
T1 sequence (P22309 26-533): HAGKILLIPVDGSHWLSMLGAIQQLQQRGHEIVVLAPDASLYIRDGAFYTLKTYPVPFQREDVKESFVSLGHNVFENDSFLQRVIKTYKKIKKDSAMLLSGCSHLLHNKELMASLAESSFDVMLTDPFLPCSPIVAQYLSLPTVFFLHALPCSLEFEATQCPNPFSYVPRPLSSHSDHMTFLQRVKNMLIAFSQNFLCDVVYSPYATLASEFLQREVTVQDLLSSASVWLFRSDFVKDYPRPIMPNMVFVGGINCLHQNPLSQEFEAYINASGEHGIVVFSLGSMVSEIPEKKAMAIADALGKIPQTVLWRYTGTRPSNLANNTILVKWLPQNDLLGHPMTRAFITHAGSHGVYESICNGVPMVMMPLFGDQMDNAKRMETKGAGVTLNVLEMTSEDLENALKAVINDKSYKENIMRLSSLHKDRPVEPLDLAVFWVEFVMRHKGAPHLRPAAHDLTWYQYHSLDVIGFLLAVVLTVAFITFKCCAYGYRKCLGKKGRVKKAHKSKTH

UGT1A1 [2] = biological target: T1, UGT1A1; assay: Glucuronidation kinetics by expressed UGT1A1; details: human, recombinant UGT1A1, pH 7.4
aldoketo reductase 1B10 = details: read-out: Ki against aldoketo reductase 1B10; tumor marker; cited from earlier work
[3] = orally administered; cited from earlier work
[4] = estimated from in vivo metabolism of curcumin and demethoxycurcumin; cited from earlier work
UGT1A1 [5] = biological target: T1, UGT1A1; assay type: biochemical; details: inhibitor 5 and 20 μM
BCRP [6] = details: read-out: IC50 as BCRP inhibitor; cited from earlier work
HeLa1A1 cells = assay: BDMC-O-glucuronide excretion experiments in HeLa1A1 cells; assay type: cell-based, human; details: inhibitor 5 and 20 μM, 5 μM BDMC, versus control
HeLa1A1 cell lysate = biological target: T2, HeLa1A1 cell lysate (Homo sapiens, UniProt P22309); assay type: biochemical; details: inhibitor 5 and 20 μM
T2 sequence (P22309 26-533): T1 sequence (P22309 26-533)

BCRP [7] = details: read-out: Ki as BCRP inhibitor in vitro; cited from earlier work

microsomal CLint (UGT1A1 [1]): 164 ± 19.8 µL/min/mg | microsomal CLint (UGT1A1 [2]): 235 ± 34.5 µL/min/mg
SMILES: O=C(/C=C/c1ccc(O)cc1)CC(=O)/C=C/c1ccc(O)cc1 [BDMC, Bisdemethoxycurcumin]
Toxicity on Hela cells (Hela cells): no significant toxicities | Ki (aldoketo reductase 1B10): 22 nM | Glucuronide in general blood circulation [3]: Approximately 50 nM | Glucuronide/sulfate conjugates in general blood circulation [3]: about 10 nM | Fraction of ingested compound excreted in feces without absorption [4]: over 75%

SMILES: COc1ccc2c3c([nH]c2c1)[C@H](CC(C)C)N1C(=O)[C@H](CCC(=O)OC(C)(C)C)NC(=O)[C@@H]1C3 [Ko143]
Effect on glucuronidation of BDMC by UGT1A1 enzyme (UGT1A1 [5]): inhibit | IC50 (BCRP [6]): […] | Increase of intracellular levels of BDMC-O-glucuronide (HeLa1A1 cells; cells collected at 2 h): 28.8–48.1% | Decrease of BDMC-O-glucuronide excretion (HeLa1A1 cells): 18.4–55.6% | Effect on glucuronidation of BDMC by HeLa1A1 cell lysate (HeLa1A1 cell lysate): inhibit

SMILES: COc1cc(/C=C/C(=O)CC(=O)/C=C/c2ccc(O)c(OC)c2)ccc1O [curcumin]
Ki (BCRP [7]): 700 ± 410 nM
